Measured values reported in patent US6609014B1, “Use of PDT to inhibit intimal hyperplasia” (QLT Inc., priority 1999, dated 2003).
Several values for one entry are separate records, joined by “and”; a condition that tells them apart may be missing. Equal entries are not always repeated.

Columns and labels:
[1] = tested on: PCNA positive (proliferating) cells in the vein; test: PCNA immunocytochemistry of AV fistula veins 48 hours after PDT; assay type: in vivo, Domestic swine
Protocol: In Example 4, immunohistochemistry was use to study the early phase of cell proliferation. Immunocytochemistry for the proliferating cell nuclear antigen (PCNA, mouse antibody clone PC10, Sigma) was used to assess cell proliferation in the vein. PCNA positive cells were counted using the Optimas image analysis program.
For the purposes of determining the early cellular effects of PDT on the vein, bilateral AV fistulae were created in six pigs and treated sides were given 0.15 mg BPD-MA (0.15 mg/2 mL) and 40 minutes OR light. After 48 hours these pigs were sacrificed and the fistulae were recovered and processed for histological evaluation. This is not enough time for IH to have developed, but the cellular activation which leads to IH may be detectable. […] Immunocytochemistry for the proliferating cell nuclear antigen (PCNA) was used to assess cell proliferation in the tissue (Table 3).

[2] = tested on: intimal hyperplasia in the vein of AV fistulae between the carotid artery and internal jugular vein; test: One-month dose optimization: PDT of bilateral end-to-side AV fistulae, morphometric analysis of vein cross-sections; assay type: in vivo, Domestic swine; parameters: key to PDT-treated fistula thrombosed (T) / PDT-treated fistula thrombosed: T = thrombosed; conditions: for Percent Lumen Compromised by Intimal Hyperplasia, PDT, Block #1 / Percent Lumen Compromised by Intimal Hyperplasia, PDT, Block #2 / Percent Lumen Compromised by Intimal Hyperplasia, Control-PDT, Block #1, Mean / Percent Lumen Compromised by Intimal Hyperplasia, Control-PDT, Block #2, Mean / Percent Lumen Compromised by Intimal Hyperplasia, PDT, Block #2, Mean / Percent Lumen Compromised by Intimal Hyperplasia, PDT, Block #1, Mean / PDT-treated fistula thrombosed (T) / Percent Lumen Compromised by Intimal Hyperplasia, Control-PDT, Block #1 / Percent Lumen Compromised by Intimal Hyperplasia, Control-PDT, Block #2: 40 min OR lamp light
Excerpt: Domestic swine (male, 40-50 kg) were used for experiments related to the present invention. Extensive research has been performed to characterize the changes leading to intimal hyperplasia (IH) in the arteries and veins of swine, which closely resemble those in humans (22). AV fistulae were created in several pigs to confirm that measurable IH developed in the vein, just distal to the anastomoses, within one month (FIG. 1A).
Pigs were recovered and left for four weeks at which time they were exsanguinated and perfused with 10% formalin. The fistulae were surgically excised for processing and wax embedding for histology (FIGS. 1A and 2). Wax blocks containing the fistulae were cut to provide sections containing a cross-section of the anastomoses, including the artery and vein distal to the sutures (FIGS. 1A, 1B, and 3).
A porous balloon catheter was introduced into the lumen of veins to deliver either 2 mL of BPD-MA (diluted in 5% dextrose in water) or 5% dextrose in water (control), at a delivery pressure of 2 mm Hg. Two minutes later, the photosensitizer (or dextrose) was rinsed out with heparinized saline before light exposure.
The adventitia of the vein was exposed to the operating room (OR) lamp light for 40 minutes (a combination of incandescent bulbs and fluorescence tubes—approximately 1 J/cm^2).
Measurements and observations were made by morphometric analysis of cross-sections of fistulae stained with Verhoeff's elastic to assess the integrity of the vessel wall and also clearly demarcate the internal elastic lamina (IEL) for the measurement of IH. Areas within the lumen and those circumscribed by the internal elastic lamina (IEL) and the external elastic lamina (EEL) were measured directly using the Optimas (Optimas Corporation, Bothell, Wash., USA) program. The areas of the intima and the media were calculated by subtraction: intimal area equals the […], and medial area equals EEL area minus IEL area.
Statistical analysis was conducted using the two tailed t-Test (two-sample assuming unequal variances) for comparisons between groups of PDT-treated and control fistulae and paired t-tests for paired comparisons of PDT-treated and control fistulae.
End-to-side AV fistulae between the carotid artery and internal jugular vein were treated at four different BPD-MA doses (0.015, 0.15, 0.5 & 1.5 mg/2 mL) and exposed to 40 minutes of operating room (OR) lamp and ambient light to determine the optimal doses required to inhibit IH while causing minimal damage to the vein wall. Bilateral AV fistulae were created. For example, one side was treated with saline and 40 min. OR lamp light, while the other side was treated with BPD-MA (0.015 mg/2 mL or the other doses) and 40 min. OR lamp light after creating the anastomoses. At least six pigs were treated using each BPD-MA dose and the 40 minutes OR lamp light delivery system.
Optimization of PS and radiation dose was performed. Bilateral end-to-side AV fistula between the carotid artery and jugular vein were created in 29 pigs. Animals were sacrificed 4 weeks after PDT, and the fistulae were surgically excised and processed for histology. Computer-assisted measurement of the lumen area and,the area delimited by the internal elastic lamina (IEL) and external elastic lamina (EEL) was performed on 5 sections of the vein. The IH was calculated by subtracting the lumen area from the […]. Medial hyperplasia was calculated by subtracting the IEL area from the EEL area.
For each fistula, the percent of the lumen compromised by the intima hyperplasia (%LCIH=IEL−Lumen/IEL) was calculated for the first two complete blocks from the tip of the anastomosis, since IH is most often observed clinically within 1 cm of the anastomosis. Differences in the % LCIH between control and treated sides were averaged for each dose group. Results are presented in Tables 1 a and 1b as well as illustrated in FIGS. 2 and 3.

[3] = 0.15 mg BPD-MA (0.15 mg/2 mL), 40 minutes OR light, six pigs
[4] = 0.015 mg BPD-MA/2 mL into vein lumen, one month, individual pigs
[5] = 0.015 mg BPD-MA/2 mL, one month, group mean
[6] = 0.015 mg BPD-MA/2 mL, one month, individual pigs
[7] = 0.15 mg BPD-MA, OR lamp, one month, group mean
[8] = 0.15 mg BPD-MA, OR lamp, one month, individual pigs
[9] = 0.15 mg BPD-MA/2 mL into vein lumen, one month, individual pigs
[10] = 0.15 mg BPD-MA/2 mL, one month, group mean
[11] = 0.15 mg BPD-MA/2 mL, one month, individual pigs
[12] = 0.15 mg BPD-MA, one month, relative to control mean
[13] = 0.15 mg BPD-MA, one month, treated vs control fistulae
[14] = 0.5 mg BPD-MA/2 mL into vein lumen, one month, individual pigs
[15] = 0.5 mg BPD-MA/2 mL, one month, group mean
[16] = 0.5 mg BPD-MA/2 mL, one month, individual pigs
[17] = 1.5 mg BPD-MA/2 mL into vein lumen, one month, individual pigs
[18] = 1.5 mg BPD-MA/2 mL, one month, group mean
[19] = 1.5 mg BPD-MA/2 mL, one month, individual pigs

For “benzoporphyrin derivative monoacid ring A [BPD-MA]”, the “MEAN PERCENT OF PCNA POSITIVE CELLS PER TISSUE AREA, PDT, BLOCK 1” value [1, 3] was 0.33%, the “MEAN PERCENT OF PCNA POSITIVE CELLS PER TISSUE AREA, PDT, BLOCK 2” value [1, 3] was 0.74% and the “MEAN PERCENT OF PCNA POSITIVE CELLS PER TISSUE AREA, PDT, BLOCK 3” value [1, 3] was 0.65%. The “Reduction of number of proliferating cells at the anastomosis of the vein” value ([1]; low-dose PDT (0.15 mg BPD-MA)) was 2 fold, the “Percent Lumen Compromised by Intimal Hyperplasia, PDT, Block #1” value [2, 4] was 3.1% and 21.3% and 9% and 30.3% and 3.4% and 2.2% and the “Percent Lumen Compromised by Intimal Hyperplasia, PDT, Block #2” value [2, 4] was 2.4% and 2.3% and 5% and 13% and 8.6% and 1.8%. For the same substance, the “Percent Lumen Compromised by Intimal Hyperplasia, Control-PDT, Block #1, Mean” value [2, 5] was 1.5%, the “Percent Lumen Compromised by Intimal Hyperplasia, Control-PDT, Block #2, Mean” value [2, 5] was 2.9% and the “Percent Lumen Compromised by Intimal Hyperplasia, PDT, Block #2, Mean” value ([2]; 0.015 mg BPD-MA/2 mL, one month, group mean, p = 0.36 vs control) was 5.5%. For the same substance, the “Percent Lumen Compromised by Intimal Hyperplasia, PDT, Block #1, Mean” value ([2]; 0.015 mg BPD-MA/2 mL, one month, group mean, p = 0.39 vs control) was 11.6%, the “PDT-treated fistula thrombosed (T)” value [2, 6] was “T” and the “Percent Lumen Compromised by Intimal Hyperplasia, Control-PDT, Block #1” value [2, 6] was −0.2% and 10.2% and −4% and −27.2% and 24.9% and 5.3%. For the same substance, the “Percent Lumen Compromised by Intimal Hyperplasia, Control-PDT, Block #2” value [2, 6] was −0.2% and 27.1% and −2% and −6.5% and −1.9% and 0.9%, the “Change in amount of IH between control and treated veins” value ([2]; 0.015 mg BPD-MA, one month) was “little change” and the “Percent Medial Hyperplasia, PDT, Block #1, Mean” value [2, 7] was 10.0%. For the same substance, the “Percent Medial Hyperplasia, PDT, Block #2, Mean” value [2, 7] was 11.5%, the “PDT-treated fistula thrombosed” value [2, 8] was “T” and the “Percent Medial Hyperplasia, PDT, Block #1” value [2, 8] was 5.9% and 15.3% and 6.2% and 12.5% and 9.8%. The “Percent Medial Hyperplasia, PDT, Block #2” value [2, 8] was 10.3% and 5.7% and 18.2% and 9.8% and 13.7%, the “Percent Lumen Compromised by Intimal Hyperplasia, PDT, Block #1” value [2, 9] was 7.1% and 19.3% and 4.6% and 9.2% and 6.9% and 21.1% and the “Percent Lumen Compromised by Intimal Hyperplasia, PDT, Block #2” value [2, 9] was 7% and 9.1% and 6.7% and 2.5% and 3.6% and 8.6%. For the same substance, the “Percent Lumen Compromised by Intimal Hyperplasia, Control-PDT, Block #1, Mean” value [2, 10] was 7.0%, the “Percent Lumen Compromised by Intimal Hyperplasia, Control-PDT, Block #2, Mean” value [2, 10] was 9.25% and the “Percent Lumen Compromised by Intimal Hyperplasia, PDT, Block #2, Mean” value ([2]; 0.15 mg BPD-MA/2 mL, one month, group mean, p = 0.06 vs control) was 6.3%. The “Percent Lumen Compromised by Intimal Hyperplasia, PDT, Block #1, Mean” value ([2]; 0.15 mg BPD-MA/2 mL, one month, group mean, p = 0.095 vs control) was 11.4%, the “PDT-treated fistula thrombosed (T)” value [2, 11] was “T” and the “Percent Lumen Compromised by Intimal Hyperplasia, Control-PDT, Block #1” value [2, 11] was 24.2% and −1.5% and 8.2% and −2.9%. The “Percent Lumen Compromised by Intimal Hyperplasia, Control-PDT, Block #2” value [2, 11] was 2.7% and 14.8% and 0.5% and 19%, the “Relative reduction of intimal hyperplasia (mean PDT-induced decrease), first block” value [2, 12] was 38% and the “Relative reduction of intimal hyperplasia (mean PDT-induced decrease), second block” value [2, 12] was 55%. For the same substance, the “Reduction in % LCIH, first block” value [2, 13] was 7.0%, the “Reduction in % LCIH, second block” value [2, 13] was 9.3% and the “Difference in medial thickness between PDT-treated and control samples, block 2” value ([2]; 0.15 mg/2 mL, one month) was “little difference”. For the same substance, the “Difference in medial thickness between PDT-treated and control samples, first block” value ([2]; 0.15 mg/2 mL, one month) was 44%, the “Percent Lumen Compromised by Intimal Hyperplasia, PDT, Block #1” value [2, 14] was 18.1% and 16.6% and 32.0% and the “Percent Lumen Compromised by Intimal Hyperplasia, PDT, Block #2” value [2, 14] was 11.2% and 6.8% and 3.4%. For the same substance, the “Percent Lumen Compromised by Intimal Hyperplasia, Control-PDT, Block #1, Mean” value [2, 15] was 0.5%, the “Percent Lumen Compromised by Intimal Hyperplasia, Control-PDT, Block #2, Mean” value [2, 15] was 0.9% and the “Percent Lumen Compromised by Intimal Hyperplasia, PDT, Block #1, Mean” value [2, 15] was 22.2%. The “Percent Lumen Compromised by Intimal Hyperplasia, PDT, Block #2, Mean” value [2, 15] was 7.1%, the “PDT-treated fistula thrombosed (T)” value [2, 16] was “T” and the “Percent Lumen Compromised by Intimal Hyperplasia, Control-PDT, Block #1” value [2, 16] was −13.0% and 5.1% and 9.4%. The “Percent Lumen Compromised by Intimal Hyperplasia, Control-PDT, Block #2” value [2, 16] was −8.3% and 2.1% and 9.0%, the “Difference in IH between treated and control fistulae” value ([2]; 0.5 mg BPD-MA, one month) was “Little difference” and the “Percent Lumen Compromised by Intimal Hyperplasia, PDT, Block #1” value [2, 17] was 19.4% and 17.4% and 21.6% and 41.8% and 12.7%. For the same substance, the “Percent Lumen Compromised by Intimal Hyperplasia, PDT, Block #2” value [2, 17] was 43.0% and 1.7% and 11.7% and 53.8% and 13.9%, the “Percent Lumen Compromised by Intimal Hyperplasia, Control-PDT, Block #1, Mean” value [2, 18] was −14.9% and the “Percent Lumen Compromised by Intimal Hyperplasia, Control-PDT, Block #2, Mean” value [2, 18] was −23.6%. The “Percent Lumen Compromised by Intimal Hyperplasia, PDT, Block #1, Mean” value [2, 18] was 22.6%, the “Percent Lumen Compromised by Intimal Hyperplasia, PDT, Block #2, Mean” value [2, 18] was 24.8% and the “PDT-treated fistula thrombosed (T)” value [2, 19] was “T”. The “Percent Lumen Compromised by Intimal Hyperplasia, Control-PDT, Block #1” value [2, 19] was −0.7% and −13.7% and −38.9% and −6.2%, the “Percent Lumen Compromised by Intimal Hyperplasia, Control-PDT, Block #2” value [2, 19] was −37.9% and 5.1% and −49.9% and −11.8% and the “Effect on IH” value ([2]; 1.5 mg dose BPD-MA, one month) was “appeared to induce IH”. For the same substance, the “Effect on development of IH, high doses” value ([2]; PDT with high doses of BPD-MA) was “either did not modulate the development of IH or actually induced IH”, the “Thrombogenicity of vessel wall, high doses” value ([2]; PDT with high doses of BPD-MA, one month) was “appeared to render the vessel wall more thrombogenic” and the “Percent IH in PDT-treated vs control fistulae, responders only” value ([2]; all animals 0.015 to 1.5 mg/2 ml BPD-MA, excluding those with less than 10% IH in control fistulae, Block 1 p=0.03, Block 2 p=0.02) was “significantly less”. The “Average one-month thrombosis incidence, PDT-treated fistulae” value ([2]; all doses (0.015-1.5 mg/2 mL BPD-MA), control fistulae 26.0%) was 26.6%, the “Effect on IH at the anastomosis of arteriovenous grafts, low doses” value ([2]; low doses (0.15 mg/2 ml) locally delivered BPD-MA, ambient light from operating room lamps) was “resulted in the reduction of IH” and the “Incidence of thrombosis, low-dose PDT” value ([2]; low-dose PDT, one month) was “not associated with an increase in the incidence of thrombosis”. For the same substance, the “Effect of PDT on medial thickening” value ([2]; one month) was “did not affect medial thickening”, the “Number of fistulae that thrombosed vs drug dose” value ([2]; one month, 0.015-1.5 mg/2 mL) was “correlated roughly with increasing drug dose” and the “Statistical significance of differences in intimal thickening between PDT-treated and control veins” value ([2]; one month, marked with some doses (0.15 mg)) was “not statistically significant”.
